Data on one molecule can be found in article PMC12549914 (Nature Communications, 2025).

For orientation: Km means the substrate concentration at which the rate is half of its maximum.

In test [1] the test system is RDW23166.1. The conditions noted are these: acetyl-CoA co-substrate presumed; conditions in supplement.
The target in test [2] is T1, LYC1 (Yarrowia lipolytica, UniProt P41929).
T1 sequence (P41929 1-392): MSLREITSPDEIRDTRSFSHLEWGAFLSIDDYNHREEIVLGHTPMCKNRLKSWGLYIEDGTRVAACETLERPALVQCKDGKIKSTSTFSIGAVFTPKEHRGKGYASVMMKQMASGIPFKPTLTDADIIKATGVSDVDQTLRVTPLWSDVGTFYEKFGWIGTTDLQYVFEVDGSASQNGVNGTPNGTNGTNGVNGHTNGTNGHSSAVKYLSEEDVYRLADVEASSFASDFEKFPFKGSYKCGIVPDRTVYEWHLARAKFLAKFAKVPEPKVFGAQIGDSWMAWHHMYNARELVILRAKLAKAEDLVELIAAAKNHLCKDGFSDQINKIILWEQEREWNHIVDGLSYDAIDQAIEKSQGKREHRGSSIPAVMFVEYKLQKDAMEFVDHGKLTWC
In words: LC-MS of dansylated product. It counts as biochemical. The conditions noted are these: with acetyl-CoA.

Consider `NCCCC[C@H](N)C(=O)O` [lysine], for which the Michaelis-Menten constant (Km) in test [1] was found to be 6.21 mM. For the same molecule, in test [2], the “LC-MS of dansylated product” value is on record as “confirming that LYC1 catalyzes lysine acetylation specifically with acetyl-CoA as the substrate”.
